According to article PMC8632988, “Inhibition of SYK and cSrc kinases can protect bone and cartilage in preclinical models of osteoarthritis and rheumatoid arthritis” (Scientific Reports, 2021):
Where two headings read alike, the source gives them in different places.

Legend:
Assay in all cases: Kinase selectivity profile assay
Format in all cases: biochemical
[1] = biological target: T1, PDK1/PDPK1 (Homo sapiens, UniProt O15530); details: 500 nM; relative to DMSO; read-out: Residual enzymatic activity
T1 construct: purchased Reaction Biology Corporation
Summary of the method: (§1)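 Radiometric kinase assay run by a standard protocol. Unbound phosphate was removed by washing filters in phosphoric acid, and product radioactivity gave percent remaining kinase activity versus DMSO vehicle reactions. Run in duplicate.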

[2] = biological target: T2, ALK3/BMPR1A (Homo sapiens, UniProt P36894); details: 500 nM; relative to DMSO; read-out: Residual enzymatic activity
T2 construct: purchased Reaction Biology Corporation
Summary of the method: as §1

[3] = biological target: T3, MYLK3 (Homo sapiens, UniProt Q32MK0); details: 500 nM; relative to DMSO; read-out: Residual enzymatic activity
T3 construct: purchased Reaction Biology Corporation
Summary of the method: as §1

[4] = biological target: T4, CDK5/p35 (Homo sapiens, UniProt Q00535); details: 500 nM; relative to DMSO; read-out: Residual enzymatic activity
T4 construct: purchased Reaction Biology Corporation
Summary of the method: as §1

[5] = biological target: T5, EPHB2 (Homo sapiens, UniProt P29323); details: 500 nM, relative to DMSO
T5 construct: purchased Reaction Biology Corporation
Summary of the method: as §1

[6] = biological target: T6, ERBB4/HER4 (Homo sapiens, UniProt Q15303); details: 500 nM; relative to DMSO; read-out: Residual enzymatic activity
T6 construct: purchased Reaction Biology Corporation
Summary of the method: as §1

[7] = biological target: T7, NEK5 (Homo sapiens, UniProt Q6P3R8); details: 500 nM; relative to DMSO; read-out: Residual enzymatic activity
T7 construct: purchased Reaction Biology Corporation
Summary of the method: as §1

[8] = biological target: T8, MST1/STK4 (Homo sapiens, UniProt Q13043); details: 500 nM; relative to DMSO; read-out: Residual enzymatic activity
T8 construct: purchased Reaction Biology Corporation
Summary of the method: as §1

[9] = biological target: T9, MST2/STK3 (Homo sapiens, UniProt Q13188); details: 500 nM; relative to DMSO; read-out: Residual enzymatic activity
T9 construct: purchased Reaction Biology Corporation
Summary of the method: as §1

[10] = biological target: T10, PKCnu/PRKD3 (Homo sapiens, UniProt O94806); details: 500 nM; relative to DMSO; read-out: Residual enzymatic activity
T10 construct: purchased Reaction Biology Corporation
Summary of the method: as §1

[11] = biological target: T11, FMS (Homo sapiens, UniProt P07333); details: 500 nM; relative to DMSO; read-out: Residual enzymatic activity
T11 construct: purchased Reaction Biology Corporation
Summary of the method: as §1

[12] = biological target: T12, ULK1 (Homo sapiens, UniProt O75385); details: 500 nM; relative to DMSO; read-out: Residual enzymatic activity
T12 construct: purchased Reaction Biology Corporation
Summary of the method: as §1

[13] = biological target: T13, MLK1/MAP3K9 (Homo sapiens, UniProt P80192); details: for remaining activity at 0.5 µM: 500 nM, relative to DMSO, read-out: Residual enzymatic activity
T13 construct: purchased Reaction Biology Corporation (assay service)
Summary of the method: as §1

[14] = biological target: T14, PKN2/PRK2 (Homo sapiens, UniProt Q16513); details: 500 nM; relative to DMSO; read-out: Residual enzymatic activity
T14 construct: purchased Reaction Biology Corporation
Summary of the method: as §1

[15] = biological target: T15, MSK1/RPS6KA5 (Homo sapiens, UniProt O75582); details: 500 nM; relative to DMSO; read-out: Residual enzymatic activity
T15 construct: purchased Reaction Biology Corporation
Summary of the method: as §1

[16] = biological target: T16, SSTK/TSSK6 (Homo sapiens, UniProt Q9BXA6); details: 500 nM; relative to DMSO; read-out: Residual enzymatic activity
T16 construct: purchased Reaction Biology Corporation
Summary of the method: as §1

[17] = biological target: T17, TNK1 (Homo sapiens, UniProt Q13470); details: 500 nM; relative to DMSO; read-out: Residual enzymatic activity
T17 construct: purchased Reaction Biology Corporation
Summary of the method: as §1

[18] = biological target: T18, CDK6/cyclin D1 (Homo sapiens, UniProt Q00534); details: 500 nM; relative to DMSO; read-out: Residual enzymatic activity
T18 construct: purchased Reaction Biology Corporation
Summary of the method: as §1

[19] = biological target: T19, PKG1a (Homo sapiens, UniProt Q13976); details: 500 nM; relative to DMSO; read-out: Residual enzymatic activity
T19 construct: purchased Reaction Biology Corporation
Summary of the method: as §1

[20] = biological target: T20, KHS/MAP4K5 (Homo sapiens, UniProt Q9Y4K4); details: 500 nM; relative to DMSO; read-out: Residual enzymatic activity
T20 construct: purchased Reaction Biology Corporation
Summary of the method: as §1

[21] = biological target: T21, CK1g2 (Homo sapiens, UniProt P78368); details: 500 nM; relative to DMSO; read-out: Residual enzymatic activity
T21 construct: purchased Reaction Biology Corporation
Summary of the method: as §1

[22] = biological target: T22, CK1epsilon (Homo sapiens, UniProt P49674); details: 500 nM; relative to DMSO; read-out: Residual enzymatic activity
T22 construct: purchased Reaction Biology Corporation
Summary of the method: as §1

[23] = biological target: T23, CDK5/p25 (Homo sapiens, UniProt Q00535); details: 500 nM; relative to DMSO; read-out: Residual enzymatic activity
T23 construct: purchased Reaction Biology Corporation
Summary of the method: as §1

[24] = biological target: T24, CDK1/cyclin B (Homo sapiens, UniProt P06493); details: 500 nM; relative to DMSO; read-out: Residual enzymatic activity
T24 construct: purchased Reaction Biology Corporation
Summary of the method: as §1

[25] = biological target: T25, WNK3 (Homo sapiens, UniProt Q9BYP7); details: 500 nM; relative to DMSO; read-out: Residual enzymatic activity
T25 construct: purchased Reaction Biology Corporation
Summary of the method: as §1

[26] = biological target: T26, DAPK2 (Homo sapiens, UniProt Q9UIK4); details: 500 nM; relative to DMSO; read-out: Residual enzymatic activity
T26 construct: purchased Reaction Biology Corporation
Summary of the method: as §1

[27] = biological target: T27, SRPK2 (Homo sapiens, UniProt P78362); details: 500 nM; relative to DMSO; read-out: Residual enzymatic activity
T27 construct: purchased Reaction Biology Corporation
Summary of the method: as §1

[28] = biological target: T28, CK2a (Homo sapiens, UniProt P68400); details: 500 nM; relative to DMSO; read-out: Residual enzymatic activity
T28 construct: purchased Reaction Biology Corporation
Summary of the method: as §1

[29] = biological target: T29, MNK1 (Homo sapiens, UniProt Q9BUB5); details: 500 nM; relative to DMSO; read-out: Residual enzymatic activity
T29 construct: purchased Reaction Biology Corporation
Summary of the method: as §1

[30] = biological target: T30, TRKA (Homo sapiens, UniProt P04629); details: 500 nM; relative to DMSO; read-out: Residual enzymatic activity
T30 construct: purchased Reaction Biology Corporation
Summary of the method: as §1

[31] = biological target: T31, CAMK2b (Homo sapiens, UniProt Q13554); details: 500 nM; relative to DMSO; read-out: Residual enzymatic activity
T31 construct: purchased Reaction Biology Corporation
Summary of the method: as §1

[32] = biological target: T32, CK2a2 (Homo sapiens, UniProt P19784); details: 500 nM; relative to DMSO; read-out: Residual enzymatic activity
T32 construct: purchased Reaction Biology Corporation
Summary of the method: as §1

[33] = biological target: T33, PIM3 (Homo sapiens, UniProt Q86V86); details: 500 nM; relative to DMSO; read-out: Residual enzymatic activity
T33 construct: purchased Reaction Biology Corporation
Summary of the method: as §1

[34] = biological target: T34, STK38L/NDR2 (Homo sapiens, UniProt Q9Y2H1); details: 500 nM; relative to DMSO; read-out: Residual enzymatic activity
T34 construct: purchased Reaction Biology Corporation
Summary of the method: as §1

[35] = biological target: T35, PAK6 (Homo sapiens, UniProt Q9NQU5); details: 500 nM; relative to DMSO; read-out: Residual enzymatic activity
T35 construct: purchased Reaction Biology Corporation
Summary of the method: as §1

[36] = biological target: T36, TIE2/TEK (Homo sapiens, UniProt Q02763); details: 500 nM, relative to DMSO
T36 construct: purchased Reaction Biology Corporation
Summary of the method: as §1

[37] = biological target: T37, ERK5/MAPK7 (Homo sapiens, UniProt Q13164); details: 500 nM; relative to DMSO; read-out: Residual enzymatic activity
T37 construct: purchased Reaction Biology Corporation
Summary of the method: as §1

[38] = biological target: T38, CDK4/cyclin D1 (Homo sapiens, UniProt P11802); details: read-out: Residual enzymatic activity
T38 construct: purchased Reaction Biology Corporation
Summary of the method: as §1

[39] = biological target: T39, ERBB2/HER2 (Homo sapiens, UniProt P04626); details: 500 nM; relative to DMSO; read-out: Residual enzymatic activity
T39 construct: purchased Reaction Biology Corporation
Summary of the method: as §1

[40] = biological target: T40, CLK4 (Homo sapiens, UniProt Q9HAZ1); details: 500 nM; relative to DMSO; read-out: Residual enzymatic activity
T40 construct: purchased Reaction Biology Corporation
Summary of the method: as §1

[41] = read-out: Residual enzymatic activity

T13 sequence (P80192 whole entry): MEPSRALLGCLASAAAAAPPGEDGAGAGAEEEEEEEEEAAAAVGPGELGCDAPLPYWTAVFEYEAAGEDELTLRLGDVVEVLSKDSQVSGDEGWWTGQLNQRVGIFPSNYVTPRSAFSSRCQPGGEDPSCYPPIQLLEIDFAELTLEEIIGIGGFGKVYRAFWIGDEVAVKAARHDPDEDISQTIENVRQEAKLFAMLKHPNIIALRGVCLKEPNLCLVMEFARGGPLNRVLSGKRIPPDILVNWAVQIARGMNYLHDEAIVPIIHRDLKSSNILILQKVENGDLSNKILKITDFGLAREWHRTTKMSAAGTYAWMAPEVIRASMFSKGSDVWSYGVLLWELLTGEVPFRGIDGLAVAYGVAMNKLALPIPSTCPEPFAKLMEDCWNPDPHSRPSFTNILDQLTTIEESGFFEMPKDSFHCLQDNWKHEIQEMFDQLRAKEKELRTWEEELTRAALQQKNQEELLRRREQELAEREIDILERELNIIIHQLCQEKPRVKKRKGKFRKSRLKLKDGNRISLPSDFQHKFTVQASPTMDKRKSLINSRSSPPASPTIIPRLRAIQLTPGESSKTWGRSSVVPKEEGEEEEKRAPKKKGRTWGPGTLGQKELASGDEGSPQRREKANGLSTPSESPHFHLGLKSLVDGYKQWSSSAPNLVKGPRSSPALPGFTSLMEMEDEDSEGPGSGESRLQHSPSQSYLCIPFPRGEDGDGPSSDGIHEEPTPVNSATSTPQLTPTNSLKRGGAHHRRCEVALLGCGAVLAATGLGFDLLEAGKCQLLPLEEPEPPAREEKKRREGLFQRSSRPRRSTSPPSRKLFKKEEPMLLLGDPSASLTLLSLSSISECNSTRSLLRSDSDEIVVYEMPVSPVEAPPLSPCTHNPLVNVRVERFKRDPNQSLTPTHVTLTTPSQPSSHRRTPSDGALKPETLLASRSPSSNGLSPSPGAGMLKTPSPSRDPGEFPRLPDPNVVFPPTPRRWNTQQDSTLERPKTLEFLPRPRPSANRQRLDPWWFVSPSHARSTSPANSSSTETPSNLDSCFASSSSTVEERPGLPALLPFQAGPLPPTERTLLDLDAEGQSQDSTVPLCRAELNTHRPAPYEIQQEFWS
T18 sequence (Q00534 whole entry): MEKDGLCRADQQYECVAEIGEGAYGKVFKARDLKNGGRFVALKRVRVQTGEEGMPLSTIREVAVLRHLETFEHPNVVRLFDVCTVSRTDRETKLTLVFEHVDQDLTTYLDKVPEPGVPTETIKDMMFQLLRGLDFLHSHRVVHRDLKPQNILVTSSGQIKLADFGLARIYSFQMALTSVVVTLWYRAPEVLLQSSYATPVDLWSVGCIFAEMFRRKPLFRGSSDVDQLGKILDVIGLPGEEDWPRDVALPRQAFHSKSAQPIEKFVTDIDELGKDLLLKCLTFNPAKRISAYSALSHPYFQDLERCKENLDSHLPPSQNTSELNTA
T18 sequence (P24385 whole entry partner): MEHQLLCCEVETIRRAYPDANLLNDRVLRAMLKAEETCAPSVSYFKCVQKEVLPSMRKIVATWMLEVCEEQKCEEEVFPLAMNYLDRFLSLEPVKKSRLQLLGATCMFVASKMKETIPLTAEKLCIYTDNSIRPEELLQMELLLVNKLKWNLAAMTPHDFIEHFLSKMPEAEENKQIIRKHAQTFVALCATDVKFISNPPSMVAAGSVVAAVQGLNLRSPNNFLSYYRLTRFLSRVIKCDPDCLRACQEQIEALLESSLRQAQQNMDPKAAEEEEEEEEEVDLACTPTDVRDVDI
T5 sequence (P29323 19-1055): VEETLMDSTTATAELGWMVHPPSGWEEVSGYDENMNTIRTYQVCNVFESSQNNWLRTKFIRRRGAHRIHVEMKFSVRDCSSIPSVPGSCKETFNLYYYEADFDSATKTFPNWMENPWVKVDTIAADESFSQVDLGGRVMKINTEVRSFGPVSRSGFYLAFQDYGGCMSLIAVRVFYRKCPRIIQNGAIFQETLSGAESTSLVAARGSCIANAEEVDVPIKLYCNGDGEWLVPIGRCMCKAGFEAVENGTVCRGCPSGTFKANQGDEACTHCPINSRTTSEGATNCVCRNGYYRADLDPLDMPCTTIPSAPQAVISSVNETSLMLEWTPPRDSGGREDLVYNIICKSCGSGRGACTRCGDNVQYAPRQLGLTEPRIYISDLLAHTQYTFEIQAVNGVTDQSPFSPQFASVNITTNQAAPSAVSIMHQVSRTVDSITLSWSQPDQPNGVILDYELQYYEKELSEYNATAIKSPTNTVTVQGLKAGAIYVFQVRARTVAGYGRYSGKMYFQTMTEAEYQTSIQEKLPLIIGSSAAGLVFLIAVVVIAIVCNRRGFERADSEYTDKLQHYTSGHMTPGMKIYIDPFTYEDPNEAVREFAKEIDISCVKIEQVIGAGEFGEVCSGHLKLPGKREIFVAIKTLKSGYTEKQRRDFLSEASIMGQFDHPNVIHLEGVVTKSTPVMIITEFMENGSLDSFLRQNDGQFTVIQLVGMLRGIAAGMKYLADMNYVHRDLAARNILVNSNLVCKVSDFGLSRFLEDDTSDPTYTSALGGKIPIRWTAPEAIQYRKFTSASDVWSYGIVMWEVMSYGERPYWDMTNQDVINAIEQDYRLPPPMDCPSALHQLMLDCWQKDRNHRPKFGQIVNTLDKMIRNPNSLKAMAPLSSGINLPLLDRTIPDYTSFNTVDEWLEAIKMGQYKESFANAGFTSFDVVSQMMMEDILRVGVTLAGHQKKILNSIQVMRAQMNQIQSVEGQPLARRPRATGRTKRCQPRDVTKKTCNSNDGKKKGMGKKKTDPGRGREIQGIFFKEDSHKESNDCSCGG
T15 sequence (O75582 whole entry): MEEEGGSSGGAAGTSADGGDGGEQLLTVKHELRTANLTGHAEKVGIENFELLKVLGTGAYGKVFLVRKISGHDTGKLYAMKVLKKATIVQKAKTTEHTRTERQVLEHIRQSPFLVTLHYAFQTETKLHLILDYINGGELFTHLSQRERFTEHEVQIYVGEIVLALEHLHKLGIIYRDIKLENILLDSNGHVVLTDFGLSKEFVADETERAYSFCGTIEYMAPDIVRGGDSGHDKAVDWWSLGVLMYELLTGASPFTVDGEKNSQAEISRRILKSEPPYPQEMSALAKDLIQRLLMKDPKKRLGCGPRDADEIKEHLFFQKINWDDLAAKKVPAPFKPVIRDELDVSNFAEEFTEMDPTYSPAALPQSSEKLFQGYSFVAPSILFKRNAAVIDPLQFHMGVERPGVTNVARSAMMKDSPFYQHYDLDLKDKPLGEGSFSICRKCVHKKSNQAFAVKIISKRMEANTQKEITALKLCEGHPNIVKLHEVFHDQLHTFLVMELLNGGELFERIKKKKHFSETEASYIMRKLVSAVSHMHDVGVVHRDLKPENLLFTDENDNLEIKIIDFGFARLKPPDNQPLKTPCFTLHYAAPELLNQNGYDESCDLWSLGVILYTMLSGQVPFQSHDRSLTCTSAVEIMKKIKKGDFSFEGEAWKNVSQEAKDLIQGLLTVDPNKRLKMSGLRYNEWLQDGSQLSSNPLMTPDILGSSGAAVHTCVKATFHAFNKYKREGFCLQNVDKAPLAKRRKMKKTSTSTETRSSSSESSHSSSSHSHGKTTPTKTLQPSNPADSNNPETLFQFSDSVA
T16 sequence (Q9BXA6 whole entry): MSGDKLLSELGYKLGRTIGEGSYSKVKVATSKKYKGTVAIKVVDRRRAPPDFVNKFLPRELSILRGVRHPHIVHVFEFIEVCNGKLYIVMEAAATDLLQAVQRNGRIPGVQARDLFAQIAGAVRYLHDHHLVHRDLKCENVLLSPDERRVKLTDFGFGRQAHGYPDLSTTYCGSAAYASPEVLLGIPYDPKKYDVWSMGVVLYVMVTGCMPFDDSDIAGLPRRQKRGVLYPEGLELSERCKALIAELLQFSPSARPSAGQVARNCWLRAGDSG
T9 sequence (Q13188 whole entry): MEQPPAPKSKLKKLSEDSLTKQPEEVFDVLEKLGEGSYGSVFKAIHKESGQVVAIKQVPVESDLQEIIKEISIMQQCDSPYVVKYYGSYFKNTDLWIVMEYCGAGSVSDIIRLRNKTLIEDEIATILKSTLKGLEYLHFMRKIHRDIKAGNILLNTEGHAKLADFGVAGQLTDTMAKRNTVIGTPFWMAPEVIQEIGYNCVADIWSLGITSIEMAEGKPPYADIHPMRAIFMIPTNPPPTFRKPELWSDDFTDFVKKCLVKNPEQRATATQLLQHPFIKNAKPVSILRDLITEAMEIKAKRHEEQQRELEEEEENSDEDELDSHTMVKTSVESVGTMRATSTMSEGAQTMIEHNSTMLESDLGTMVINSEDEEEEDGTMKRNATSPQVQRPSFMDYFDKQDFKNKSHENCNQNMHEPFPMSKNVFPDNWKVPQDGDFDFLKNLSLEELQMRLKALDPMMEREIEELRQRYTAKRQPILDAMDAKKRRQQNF
T32 sequence (P19784 whole entry): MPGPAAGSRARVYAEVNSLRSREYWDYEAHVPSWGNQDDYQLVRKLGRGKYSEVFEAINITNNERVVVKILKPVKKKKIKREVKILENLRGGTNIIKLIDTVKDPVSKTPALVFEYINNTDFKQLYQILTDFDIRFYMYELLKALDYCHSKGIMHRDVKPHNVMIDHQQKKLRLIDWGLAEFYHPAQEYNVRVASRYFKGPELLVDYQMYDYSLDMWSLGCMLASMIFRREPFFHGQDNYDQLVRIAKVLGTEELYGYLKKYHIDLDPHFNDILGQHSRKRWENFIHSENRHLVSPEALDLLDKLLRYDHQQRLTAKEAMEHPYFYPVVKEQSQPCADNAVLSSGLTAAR

COc1cc(Nc2ncnc(Nc3cc4c(cn3)NC(=O)C(C)(C)O4)n2)cc(OC)c1OC [MT-SYK-03]
remaining activity at 0.5 µM [1]: 85.5% | remaining activity at 0.5 µM [2]: 130% | remaining activity at 0.5 µM [3]: 95.9% | remaining activity at 0.5 µM [4]: 101% | Residual enzymatic activity [5]: 77.7% | remaining activity at 0.5 µM [6]: 79.4% | remaining activity at 0.5 µM [7]: 63.6% | remaining activity at 0.5 µM [8]: 94.2% | remaining activity at 0.5 µM [9]: 105% | remaining activity at 0.5 µM [10]: 99.9% | remaining activity at 0.5 µM [11]: 51.1% | remaining activity at 0.5 µM [12]: 62.2% | remaining activity at 0.5 µM [13]: 21.5% | IC50 ([13]; 10-dose mode, threefold serial dilution from 10 μM): 7.8 nM | remaining activity at 0.5 µM [14]: 95.6% | remaining activity at 0.5 µM [15]: 106% | remaining activity at 0.5 µM [16]: 103% | remaining activity at 0.5 µM [17]: 44.7% | remaining activity at 0.5 µM [18]: 91.8% | remaining activity at 0.5 µM [19]: 94.8% | remaining activity at 0.5 µM [20]: 91.8% | remaining activity at 0.5 µM [21]: 97.2% | remaining activity at 0.5 µM [22]: 98% | remaining activity at 0.5 µM [23]: 102% | remaining activity at 0.5 µM [24]: 96% | remaining activity at 0.5 µM [25]: 82.4% | remaining activity at 0.5 µM [26]: 98.4% | remaining activity at 0.5 µM [27]: 104% | remaining activity at 0.5 µM [28]: 94.3% | remaining activity at 0.5 µM [29]: 91.2% | remaining activity at 0.5 µM [30]: 82.5% | remaining activity at 0.5 µM [31]: 97.7% | remaining activity at 0.5 µM [32]: 66% | remaining activity at 0.5 µM [33]: 98.8% | remaining activity at 0.5 µM [34]: 89.6% | remaining activity at 0.5 µM [35]: 96.5% | Residual enzymatic activity [36]: 92.9% | remaining activity at 0.5 µM [37]: 92.2% | remaining activity at 0.5 µM ([38]; 500 nM, relative to DMSO): 109% | remaining activity at 0.5 µM [39]: 82.2% | remaining activity at 0.5 µM [40]: 88.7%

COc1cc(Nc2ncc(F)c(Nc3ccc4c(n3)NC(=O)C(C)(C)O4)n2)cc(OC)c1OC [R406, reference compound]
remaining activity at 0.5 µM [1]: 30.7% | remaining activity at 0.5 µM [2]: 120% | remaining activity at 0.5 µM [3]: 96.4% | remaining activity at 0.5 µM [4]: 82.9% | remaining activity at 0.5 µM [5, 41]: 69.5% | remaining activity at 0.5 µM [6]: 68.2% | remaining activity at 0.5 µM [7]: 27.1% | remaining activity at 0.5 µM [8]: 86.3% | remaining activity at 0.5 µM [9]: 97.9% | remaining activity at 0.5 µM [10]: 72.8% | remaining activity at 0.5 µM [11]: 17.2% | remaining activity at 0.5 µM [12]: 8.8% | remaining activity at 0.5 µM [13]: 6.3% | remaining activity at 0.5 µM [14]: 85.4% | remaining activity at 0.5 µM [15]: 97.3% | remaining activity at 0.5 µM [16]: 98.7% | remaining activity at 0.5 µM [17]: 9.6% | remaining activity at 0.5 µM [18]: 93.4% | remaining activity at 0.5 µM [19]: 85.4% | remaining activity at 0.5 µM [20]: 87.1% | remaining activity at 0.5 µM [21]: 101% | remaining activity at 0.5 µM [22]: 104% | remaining activity at 0.5 µM [23]: 79.4% | remaining activity at 0.5 µM [24]: 75.6% | remaining activity at 0.5 µM [25]: 77.7% | remaining activity at 0.5 µM [26]: 103% | remaining activity at 0.5 µM [27]: 104% | remaining activity at 0.5 µM [28]: 50.8% | remaining activity at 0.5 µM [29]: 61.5% | remaining activity at 0.5 µM [30]: 25.7% | remaining activity at 0.5 µM [31]: 95.8% | remaining activity at 0.5 µM [32]: 21.4% | remaining activity at 0.5 µM [33]: 82.8% | remaining activity at 0.5 µM [34]: 32.1% | remaining activity at 0.5 µM [35]: 81.2% | remaining activity at 0.5 µM [36, 41]: 69.9% | remaining activity at 0.5 µM [37]: 88.2% | remaining activity at 0.5 µM [38]: 104% | remaining activity at 0.5 µM [39]: 80.5% | remaining activity at 0.5 µM [40]: 52.1%
